Here are results for 6 compounds from patent US9101632B2, “Kinase inhibitors, prodrug forms thereof and their use in therapy” (AUCKLAND UNISERVICES LIMITED, priority 2009, dated 2015).

For one series, the system named is H1975 tumours. Conditions: H1975 xenograft, q3dx4, intraperitoneal; for Drug related deaths: lactate buffer pH 4; for Weight Loss Nadir (%): mean nadir relative to day 0 weight.
The test system of a further series is H1975 cells. Briefly: Inhibition of cellular proliferation (sulforhodamine B staining). The note with it: for H1975 HCR (Hypoxic Cytotoxicity Ratio): fold change in intra-experimental IC50, 4 hours anoxia relative to oxic only.
Another series concerns A431 cells. Described as above. Conditions: for A431 HCR (Hypoxic Cytotoxicity Ratio): fold change in intra-experimental IC50, 4 hours anoxia relative to oxic only.
Another series has as its system SKOV3 cells. The series is described as above.
The mark [1] stands for this setting: read-out: Cellular Growth Inhibition IC50 H1975 Anoxic, initial 4 hours of the 24 hour exposure under anoxic conditions.
Where [2] appears, read: read-out: Cellular Growth Inhibition IC50 A431 Anoxic, initial 4 hours of the 24 hour exposure under anoxic conditions.
Setting [3] is: read-out: Cellular Growth Inhibition IC50 SKOV3 Anoxic, initial 4 hours of the 24 hour exposure under anoxic conditions.
[4] abbreviates: read-out: Cellular Growth Inhibition IC50 A431 Oxic, 24 hour exposure entirely under oxic conditions, washed, further 4 days.
Where [5] appears, read: read-out: Cellular Growth Inhibition IC50 SKOV3 Oxic, 24 hour exposure entirely under oxic conditions, washed, further 4 days.
Where [6] appears, read: read-out: Cellular Growth Inhibition IC50 H1975 Oxic, 24 hour exposure entirely under oxic conditions, washed, further 4 days.

As usually defined, the IC50 is the midpoint of a concentration-inhibition curve.

Like-named read-outs stand apart in the source and are kept apart here.

On to `CN(C)C/C=C/C(=O)Nc1cc2c(Nc3ccc(OCc4cccc(Cl)c4)c(Cl)c3)ncnc2cn1` [Compound 1, (2E)-N-(4-{3-chloro-4-[(3-chlorobenzyl)oxy]anilino}pyrido[3,4-d]pyrimidin-6-yl)-4-(dimethylamino)-2-butenamide], for which, in the series with H1975 tumours, the Drug related deaths was found to be 0. In addition, in the series with H1975 tumours, the “Weight Loss Nadir (%)” value is −3.6 ± 3.0%. Also, the IC50 came to 880 nM with H1975 cells (setting [1]), 221 nM in the series with A431 cells (setting [2]) and 690 nM in the series with SKOV3 cells (setting [3]).
Compound `CN(C)C/C=C/C(=O)Nc1cc2c(Nc3ccc4c(cnn4Cc4cccc(F)c4)c3)ncnc2cn1` [Compound 2, (2E)-4-(dimethylamino)-N-(4-{[1-(3-fluorobenzyl)-1H-indazol-5-yl]amino}pyrido[3,4-d]pyrimidin-6-yl)-2-butenamide] had a Drug related deaths in the series on H1975 tumours of 0. In the series with H1975 tumours, the “Weight Loss Nadir (%)” value is reported as −7.9 ± 0.6%. Moreover, the IC50 with H1975 cells (setting [1]) turned out to be 1000 nM; with A431 cells (setting [2]), 90 nM; in the series with SKOV3 cells (setting [3]) it was 900 nM. For the same compound, the “A431 HCR (Hypoxic Cytotoxicity Ratio)” value in the series on A431 cells is 1.0.
Take `CN(C)C/C=C/C(=O)Nc1cc2c(Nc3ccc(Cl)c(Cl)c3)ncnc2cn1` [Compound 4, (2E)-N-[4-(3,4-dichloroanilino)pyrido[3,4-d]pyrimidin-6-yl]-4-(dimethylamino)-2-butenamide]: the Drug related deaths in the series with H1975 tumours is listed as 0. Also, the “Weight Loss Nadir (%)” value with H1975 tumours is reported as −9.7 ± 4.0%. The IC50 in the series with H1975 cells (setting [1]) came to 560 nM; with A431 cells (setting [2]), 15 nM; with A431 cells (setting [4]) it was 9 nM; in the series with SKOV3 cells (setting [3]) it was 550 nM; in the series on SKOV3 cells (setting [5]), 360 nM. In addition, the “A431 HCR (Hypoxic Cytotoxicity Ratio)” value in the series on A431 cells is listed as 0.9. Besides, in the series with SKOV3 cells (fold change in intra-experimental IC50, 4 hours anoxia relative to oxic only), the “SKOV3 HCR (Hypoxic Cytotoxicity Ratio)” value came out at 0.9.
Take `CN(C)C/C=C/C(=O)Nc1cc2c(Nc3ccc(Br)c(Br)c3)ncnc2cn1` [Compound 7, (2E)-N-[4-(3,4-dibromoanilino)pyrido[3,4-d]pyrimidin-6-yl]-4-(dimethylamino)-2-butenamide]: in the series on H1975 tumours, the Drug related deaths was found to be 1. The “Weight Loss Nadir (%)” value in the series with H1975 tumours is given as −4.9 ± 2.4%. In the series with H1975 cells, the “H1975 HCR (Hypoxic Cytotoxicity Ratio)” value turned out to be 1.0. The IC50 with H1975 cells (setting [1]) turned out to be 270 nM; in the series on H1975 cells (setting [6]), 180 nM; in the series on A431 cells (setting [2]) it was 8 nM; in the series with A431 cells (setting [4]), 5 nM; in the series with SKOV3 cells (setting [3]), 600 nM; with SKOV3 cells (setting [5]) it was 370 nM. Also, the “A431 HCR (Hypoxic Cytotoxicity Ratio)” value with A431 cells was 0.8.
In the series with H1975 tumours, `C#Cc1cc(Nc2ncnc3cnc(NC(=O)/C=C/CN(C)C)cc23)ccc1F` [Compound 8, (2E)-4-(dimethylamino)-N-[4-(3-ethynyl-4-fluoroanilino)pyrido[3,4-d]pyrimidin-6-yl]-2-butenamide] displayed a Drug related deaths of 0. Besides, the “Weight Loss Nadir (%)” value in the series on H1975 tumours is recorded as −3.3 ± 3.0%. For the same compound, the IC50 in the series on H1975 cells (setting [1]) is 1400 nM; in the series with A431 cells (setting [2]) it was 120 nM; in the series on SKOV3 cells (setting [3]) it was 1800 nM.
With `Cc1nc([N+](=O)[O-])c(C[N+](C)(C)C/C=C/C(=O)Nc2cc3c(Nc4ccc5c(cnn5Cc5cccc(F)c5)c4)ncnc3cn2)n1C` [Compound 14, (2E)-N-[(1,2-dimethyl-4-nitro-1H-imidazol-5-yl)methyl]-4-[(4-{[1-(3-fluorobenzyl)-1H-indazol-5-yl]amino}pyrido[3,4-d]pyrimidin-6-yl)amino]-N,N-dimethyl-4-oxo-2-buten-1-ammonium bromide], the “H1975 HCR (Hypoxic Cytotoxicity Ratio)” value in the series with H1975 cells amounted to 26. Moreover, the IC50 turned out to be 1200 nM in the series on H1975 cells (setting [1]); 20000 nM with H1975 cells (setting [6]); 63 nM with A431 cells (setting [2]); 5700 nM in the series on A431 cells (setting [4]); 1100 nM in the series on SKOV3 cells (setting [3]); 32000 nM with SKOV3 cells (setting [5]).
